The subject of assay [1] is blood cancer cell lines (e.g. HL-60, Jurkat, Raji, Ramos, Daudi, MOLT-4). Nature of the assay: Cell based assay, cell viability (CellTiter-Glo), blood cancer cell lines. As to conditions: Homo sapiens. The essentials: (§1)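 Each commercial line was plated and allowed 24 h to settle at constant temperature. Compound exposure ran 72 h at final concentrations spanning 0 to 2 μM. Cell viability was then determined by luminescent ATP detection.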

Assay [2] concerns pancreatic cancer cell lines (e.g. MIA PaCa-2). The assay is described as follows: Cell based assay, cell viability (CellTiter-Glo), pancreatic cancer cell lines. Particulars: Homo sapiens. An outline of the steps:
as §1
A general note: Cellular ATP, detected with luciferase, serves as a proxy for viable cell number.

The test system of assay [3] is cervical carcinoma cell lines. The assay is described as follows: Cell based assay, cell viability (CellTiter-Glo), cervical carcinoma cell lines. Particulars: Homo sapiens; HeLa cells.
Assay [4] relates to RT4: human urinary bladder transitional cell papilloma. Nature of the assay: Cell based assay, cytotoxicity in RT4 papilloma cells (selectivity). As to conditions: Homo sapiens, RT-4; RT4 cells.
Where [5] appears, read: MV4-11, blood cancer cell line MV-4-11, 72 hours, read-out: IC50, MV-4-11.
[6] abbreviates: blood cancer cell line Daudi, 72 hours, read-out: IC50, Daudi.
The mark [7] stands for this setting: blood cancer cell line HL-60, 72 hours, read-out: IC50, HL-60.
[8] abbreviates: blood cancer cell line Jurkat, 72 hours, read-out: IC50, Jurkat.
Where [9] appears, read: blood cancer cell line MOLT-4, 72 hours, read-out: IC50, MOLT-4.
The mark [10] stands for this setting: blood cancer cell line Raji, 72 hours, read-out: IC50, Raji.
[11] abbreviates: blood cancer cell line Ramos (RA 1), 72 hours, read-out: IC50, Ramos (RA 1).
Where [12] appears, read: blood cancer cell line U-937, 72 hours, read-out: IC50, U-937.
[13] abbreviates: pancreatic cancer cell line AsPC-1, 72 hours, read-out: IC50, AsPC-1.
Setting [14] is: pancreatic cancer cell line BxPC-3, 72 hours, read-out: IC50, BxPC-3.
[15] abbreviates: pancreatic cancer cell line CFPAC-1, 72 hours, read-out: IC50, CFPAC-1.
[16] abbreviates: pancreatic cancer cell line Capan-1, 72 hours, read-out: IC50, Capan-1.
Where [17] appears, read: pancreatic cancer cell line Capan-2, 72 hours, read-out: IC50, Capan-2.
[18] abbreviates: pancreatic cancer cell line MIA PaCa-2, 72 hours, read-out: IC50, MIA PaCa-2.
[19] abbreviates: pancreatic cancer cell line PANC-1, 72 hours, read-out: IC50, PANC-1.

Read-outs that look alike come from different tables or passages of the source.

The results in this text go back to US11464770B2, “Anticancer pharmaceutical composition” (NATIONAL CANCER CENTER, priority 2016, dated 2022).

One may read the IC50 as the concentration at which inhibition is half-maximal. As for `CC(=O)c1c([S+]([O-])Cc2cccc(F)c2)[nH]c2c(Br)ccc(Cl)c2c1=O` (stereo not drawn) [Compound 50, 3-acetyl-8-bromo-5-chloro-2-((3-fluorobenzyl)sulfinyl)quinolin-4(1H)-one], the IC50 in assay [1] (setting [5]) was > 2 µM; in assay [1] (setting [6]), > 2 µM; in assay [1] (setting [7]), > 2 µM; in assay [1] (setting [8]), 1.2 µM; in assay [1] (setting [9]), 1.66 µM; in assay [1] (setting [10]), 1.41 µM. For the same molecule, the IC50 in assay [1] (setting [11]) is > 2 µM; in assay [1] (setting [12]) it was > 2 µM; in assay [2] (setting [13]), > 2 µM; in assay [2] (setting [14]), > 2 µM; in assay [2] (setting [15]) it was > 10 µM; in assay [2] (setting [16]), > 2 µM. Besides, the 50% inhibitory concentration (IC50) was > 2 µM in assay [2] (setting [17]); 1.45 µM in assay [2] (setting [18]); > 2 µM in assay [2] (setting [19]); > 10 µM in assay [3]; > 10 µM in assay [4].
On to `CC(=O)c1c([S+]([O-])Cc2cc(C)on2)[nH]c2c(Br)ccc(Cl)c2c1=O` (stereo not drawn) [Compound 51, 3-acetyl-8-bromo-5-chloro-2-(((5-methylisoxazol-3-yl)methyl)sulfinyl)quinolin-4(1H)-one], for which the IC50 in assay [1] (setting [5]) is 0.68 µM; in assay [1] (setting [6]) it was 1.66 µM; in assay [1] (setting [7]), 0.95 µM; in assay [1] (setting [8]) it was 0.85 µM; in assay [1] (setting [9]), 1.44 µM; in assay [1] (setting [10]) it was 0.76 µM. Moreover, the IC50 was 1.07 µM in assay [1] (setting [11]); 0.63 µM in assay [1] (setting [12]); > 2 µM in assay [2] (setting [13]); > 2 µM in assay [2] (setting [14]); > 10 µM in assay [2] (setting [15]); > 2 µM in assay [2] (setting [16]). Besides, the IC50 in assay [2] (setting [17]) is > 2 µM; in assay [2] (setting [18]), 0.76 µM; in assay [2] (setting [19]), > 2 µM; in assay [3], > 10 µM; in assay [4], > 10 µM.
For `COc1cccc(C[S+]([O-])c2[nH]c3c(Br)ccc(Cl)c3c(=O)c2C(C)=O)c1` (stereo not drawn) [Compound 55, 3-acetyl-8-bromo-5-chloro-2-((3-methoxybenzyl)sulfinyl)quinolin-4(1H)-one], the half-maximal inhibitory concentration (IC50) in assay [1] (setting [5]) was > 2 µM; in assay [1] (setting [6]), > 2 µM; in assay [1] (setting [7]), > 2 µM; in assay [1] (setting [8]), 1.3 µM; in assay [1] (setting [9]), 1.47 µM; in assay [1] (setting [10]), > 2 µM. The IC50 in assay [1] (setting [11]) was > 2 µM; in assay [1] (setting [12]), > 2 µM; in assay [2] (setting [13]), > 2 µM; in assay [2] (setting [14]) it was > 2 µM; in assay [2] (setting [15]), > 10 µM; in assay [2] (setting [16]) it was > 2 µM. Also, the IC50 in assay [2] (setting [17]) is > 2 µM; in assay [2] (setting [18]), 1.69 µM; in assay [2] (setting [19]) it was > 2 µM; in assay [3], > 10 µM; in assay [4], > 10 µM.
Take `CC(=O)c1c([S+]([O-])Cc2ccc(SC(F)(F)F)cc2)[nH]c2c(Br)ccc(Cl)c2c1=O` (stereo not drawn) [Compound 56, 3-acetyl-8-bromo-5-chloro-2-((4-((trifluoromethyl)thio)benzyl)sulfinyl)quinolin-4(1H)-one]: the IC50 in assay [1] (setting [5]) is 1.5 µM; in assay [1] (setting [6]), 1.25 µM; in assay [1] (setting [7]) it was 1.95 µM; in assay [1] (setting [8]) it was 1.06 µM; in assay [1] (setting [9]), 1.66 µM; in assay [1] (setting [10]), 1.12 µM. The half-maximal inhibitory concentration (IC50) in assay [1] (setting [11]) was 1.86 µM; in assay [1] (setting [12]), 1.75 µM; in assay [2] (setting [13]), > 2 µM; in assay [2] (setting [14]), > 2 µM; in assay [2] (setting [15]) it was > 10 µM; in assay [2] (setting [16]), > 2 µM. The half-maximal inhibitory concentration (IC50) is > 2 µM in assay [2] (setting [17]); 1.37 µM in assay [2] (setting [18]); > 2 µM in assay [2] (setting [19]); > 2 µM in assay [3]; > 10 µM in assay [4].
As for `CC(=O)c1c([S+]([O-])Cc2ccc([N+](=O)[O-])cc2)[nH]c2c(Cl)ccc(Cl)c2c1=O` (stereo not drawn) [Compound 57, 3-acetyl-5,8-dichloro-2-((4-nitrobenzyl)sulfinyl)quinolin-4(1H)-one], the IC50 in assay [1] (setting [5]), in assay [1] (setting [6]), in assay [1] (setting [7]), in assay [1] (setting [8]), in assay [1] (setting [9]) and in assay [1] (setting [10]) was > 2 µM in each case. Moreover, the 50% inhibitory concentration (IC50) in assay [1] (setting [11]) was > 2 µM; in assay [1] (setting [12]) it was > 2 µM; in assay [2] (setting [13]), > 2 µM; in assay [2] (setting [14]) it was > 2 µM; in assay [2] (setting [15]) it was > 10 µM; in assay [2] (setting [16]), > 2 µM. Further, the IC50 was > 2 µM in assay [2] (setting [17]); > 2 µM in assay [2] (setting [18]); > 2 µM in assay [2] (setting [19]); > 10 µM in assay [3]; > 10 µM in assay [4].
In the case of `COc1cc(C[S+]([O-])c2[nH]c3c(Br)ccc(Cl)c3c(=O)c2C(C)=O)cc(OC)c1` (stereo not drawn) [Compound 59, 3-acetyl-8-bromo-5-chloro-2-((3,5-dimethoxybenzyl)sulfinyl)quinolin-4(1H)-one], the IC50 in assay [1] (setting [5]) was 1.56 µM; in assay [1] (setting [6]) it was > 2 µM; in assay [1] (setting [7]), 1.99 µM; in assay [1] (setting [8]) it was 1.01 µM; in assay [1] (setting [9]) it was 1.38 µM; in assay [1] (setting [10]), 1.15 µM. In addition, the half-maximal inhibitory concentration (IC50) in assay [1] (setting [11]) is > 2 µM; in assay [1] (setting [12]) it was > 2 µM; in assay [2] (setting [13]), > 2 µM; in assay [2] (setting [14]) it was > 2 µM; in assay [2] (setting [15]), > 10 µM; in assay [2] (setting [16]), > 2 µM. The IC50 in assay [2] (setting [17]) was > 2 µM; in assay [2] (setting [18]), 1.38 µM; in assay [2] (setting [19]), > 2 µM; in assay [3], > 10 µM; in assay [4] it was > 10 µM.
